Data reported in patent publication US7897834B2, “Mutation in the rat adenomatous polyposis coli gene within the human mutation hotspot region” (Wisconsin Alumni Research Foundation, priority 2005, dated 2011).

What was measured:
[1] = test system: intestinal tumors in F344-Pirc rats; test: Tumor multiplicities in F344-Pirc rats after somatic ENU treatment; format: in vivo, rat; details: ENU treated, male, age 7 mo
Protocol: Somatic ENU treatment. ENU was dissolved in 95% EtOH and measured with a spectrophotometer at […] to obtain a final concentration of 1 mg/ml. Either the ENU solution or 95% EtOH was injected intraperitoneally into 13-20 day old rats at 18 or 40 mg/kg of body mass. Treated animals were isolated in a laminar flow hood for at least three days before being returned to normal housing.
Tumor multiplicities were determined for both adenomas and microadenomas (neoplasms less than 0.5 mm in diameter). A significant dependence on gender was observed, with males developing more of both types of tumor in all regions of the intestinal tract. There was also a monotonic increase in tumor multiplicity with age, reaching an average of 14 colonic adenomas in males and 9 in females over eight months of age (Tables 3 and 4).
Shown in Table 3 are the tumor multiplicities in Pirc rats. Colonic microadenoma multiplicities could not be accurately measured without histopathological confirmation and were excluded from these analyses. Neoplasms less than 0.5 mm in size were classified as microadenomas.

[2] = test system: intestinal tumors in F344 Pirc rats; test: Effect of celecoxib on intestinal tumor multiplicity in F344 Pirc rats (screening for carcinogenesis inhibitory activity); format: in vivo, rat; details: for Average number of tumors in large intestine / Average number of tumors in small intestine / Average total number of tumors: celecoxib 1200 ppm diet from about 40 days of age, necropsy at about 22 weeks, n=9
Protocol: Shown in Table 5 is an example of the use of a Pirc rat for screening a compound for carcinogenesis inhibitory activity. The effect of celecoxib on intestinal tumor multiplicity in F344 Pirc rats was tested. At about 40 days of age, Pirc rats backcrossed with F344-Tac and F334 control rats were fed celecoxib at 1200 ppm diet. The rats were killed at about 22 weeks of age (about 150-160 days of age). Necropsy was performed to identify 1-2 mm tumors in the intestines.

[3] = N=3, ENU intraperitoneally at 18 or 40 mg/kg in 13-20 day old rats
[4] = Female Pirc rat, celecoxib 1200 ppm diet vs control diet
[5] = Male Pirc rat, celecoxib 1200 ppm diet vs control diet

Row | Structure (SMILES) | Colonic polyps, mean ± SD [1, 3] | Lesions in small intestine, mean ± SD: Adenomas [1, 3] | Lesions in small intestine, mean ± SD: Microadenomas ([1]; N=3, neoplasms less than 0.5 mm) | Average number of tumors in large intestine ([2]; Female Pirc rat) | Average number of tumors in small intestine ([2]; Female Pirc rat) | Average total number of tumors ([2]; Female Pirc rat) | Relative reduction in number of tumors (large intestine) [2, 4] [%] | Relative reduction in number of tumors (total) [2, 4] [%] | Average number of tumors in large intestine ([2]; Male Pirc rat) | Average number of tumors in small intestine ([2]; Male Pirc rat) | Average total number of tumors ([2]; Male Pirc rat) | Relative reduction in number of tumors (large intestine) [2, 5] [%] | Relative reduction in number of tumors (small intestine) [2, 5] [%] | Relative reduction in number of tumors (total) [2, 5] [%]
1 | CCN(N=O)C(N)=O [ENU, N-ethyl-N-nitrosourea] | 79 ± 11 | 57 ± 13 | 665 ± 103 |  |  |  |  |  |  |  |  |  |  | 
2 | Cc1ccc(-c2cc(C(F)(F)F)nn2-c2ccc(S(N)(=O)=O)cc2)cc1 [Celecoxib, celecoxib] |  |  |  | 0.1 | 0.9 | 1.0 | 93 | 50 | 1.2 | 1.3 | 2.6 | 61 | 82 | 76
